Assay: Hygroscopicity (vapor sorption analysis)
Format: physicochemical
Experimental: Hygroscopicity data was obtained on a VTI Symmetrical Vapor Sorption Analyzer Model SGA-1. Data was collected at room temperature from 5-95% relative humidity and back, 5% relative humidity change per step. Equilibrium conditions were 0.01 weight percent change in 5 minutes with a maximum equilibration time of 180 minutes. […] When equilibrated back down to 5% RH, the material returned back to approximately its dry weight.

In the case of `Cc1nnc(C(=O)NC(C)(C)c2nc(C(=O)NCc3ccc(F)cc3)c(O)c(=O)n2C)o1`, the “XRPD analysis after the hygroscopicity experiment (phase stability)” value (after cycling 5-95% relative humidity and back) is reported as “had not changed phases” and the “weight increase (hygroscopicity)” value (equilibrated at 95% RH at 25° C.) is reported as 1.8%.

Source: patent US8852632B2, “Pharmaceutical formulation containing a release rate controlling composition” (Merck Sharp & Dohme Corp., priority 2004, dated 2014)
